Results as given in patent US20190322676A1, “CERAMIDE GALACTOSYLTRANSFERASE INHIBITORS FOR THE TREATMENT OF DISEASE” (BioMarin Pharmaceutical Inc., priority 2016, published 2019).
Where a name gives a salt, the structure may show the parent alone.

Each compound was assayed against T1, human CGT (ceramide galactosyltransferase), CHO/CGT lysate (Homo sapiens, UniProt Q16880) (assay: CGT enzyme assay, RapidFire/MS/MS readout with 0.01% Tween added (Table 1 ranges with two asterisks **)). Conditions: CGT enzymatic assay; range with two asterisks (**): RapidFire/MS/MS method with 0.01% Tween added.
T1 construct: Full-length human CGT cDNA was cloned into the BamH1/Xho1 site of pcDNA3.1 (+); expressed in transfected cells; host or cells: Chinese hamster ovary (CHO) cells; lysate prepared with M-PER
T1 sequence (Q16880 21-541): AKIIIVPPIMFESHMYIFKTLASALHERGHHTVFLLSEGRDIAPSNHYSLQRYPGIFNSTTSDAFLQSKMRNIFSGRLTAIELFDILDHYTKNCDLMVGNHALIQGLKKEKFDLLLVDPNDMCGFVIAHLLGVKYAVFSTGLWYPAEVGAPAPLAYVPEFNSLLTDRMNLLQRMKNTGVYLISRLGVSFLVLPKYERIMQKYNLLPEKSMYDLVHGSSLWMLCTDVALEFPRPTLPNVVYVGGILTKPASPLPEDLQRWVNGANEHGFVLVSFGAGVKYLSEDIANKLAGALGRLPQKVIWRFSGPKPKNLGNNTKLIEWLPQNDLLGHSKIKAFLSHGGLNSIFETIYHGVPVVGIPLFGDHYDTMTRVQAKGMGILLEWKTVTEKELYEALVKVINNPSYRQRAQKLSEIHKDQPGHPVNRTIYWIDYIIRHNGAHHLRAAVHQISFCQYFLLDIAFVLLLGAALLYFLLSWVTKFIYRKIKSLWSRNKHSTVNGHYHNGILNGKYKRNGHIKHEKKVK
Type: biochemical
Method in brief: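 IC50s come from variable-slope dose-response fits of internal-standard-normalized C6-NBD-dihydro-galactosylceramide, measured by RapidFire/MS/MS (ESI negative). Reactions: 1 h, 37 °C, human CGT-expressing CHO lysate (4 μg), 0.001–50 μM compound, 10 μM NBD-dihydro-ceramide, 17.5 μM UDP-galactose, 0.5% DMSO, pH 7.2; 0.01% Tween 80 added for ** values.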

IC50 [µM] | SMILES
1 to 10 | N[C@H]1CCN(C(=O)[C@@H](NS(=O)(=O)c2ccc3cc(OC4CCCC4)ccc3c2)C(F)(F)c2ccc(-c3ccc(Cl)cc3)cc2)C[C@@H]1F [Compound 178-1, N—((R)-3-((3 S,4S)-4-amino-3-fluoropiperidin-1-yl)-1-(4′-chloro-[1,1′-biphenyl]-4-yl)-1,1-difluoro-3-oxopropan-2-yl)-6-(cyclopentyloxy)naphthalene-2-sulfonamide]
1 to 10 | NC1C2CCC1CN(C(=O)[C@H](NS(=O)(=O)c1ccc(OCC3CCCCC3)cc1)C(F)(F)c1ccc(-c3ccc(Cl)cc3)cc1)C2 (stereo partly drawn) [Compound 183-2, N-((S)-3-((1R,5S,8S)-8-amino-3-azabicyclo[3.2.1]octan-3-yl)-1-(4′-chloro-[1,1′-biphenyl]-4-yl)-1,1-difluoro-3-oxopropan-2-yl)-4-(cyclohexylmethoxy)benzenesulfonamide]
30 to 100 | NC1CCN(C(=O)[C@@H](N(CC(F)(F)F)S(=O)(=O)c2ccc3cc(OC4CCCC4)ccc3c2)C(F)(F)c2ccc(Br)cc2)CC1 [Compound 187-1, (R)-N-(3-(4-aminopiperidin-1-yl)-1-(4-bromophenyl)-1,1-difluoro-3-oxopropan-2-yl)-6-(cyclopentyloxy)-N-(2,2,2-trifluoroethyl)naphthalene-2-sulfonamide]
1 to 10 | COc1cc(C(F)(F)[C@H](NS(=O)(=O)c2ccc(OCC3CCCCC3)cc2)C(=O)N2C[C@H]3CNC[C@H]3C2)ccc1-c1ccc(Cl)cc1 [Compound 190-1, N-((R)-1-(4′-chloro-2-methoxy-[1,1′-biphenyl]-4-yl)-1,1-difluoro-3-((3aR,6aS)-hexahydropyrrolo[3,4-c]pyrrol-2(1H)-yl)-3-oxopropan-2-yl)-4-(cyclohexylmethoxy)benzenesulfonamide]
1 to 10 | O=C([C@@H](NS(=O)(=O)c1ccc2cc(OC3CCCC3)ccc2c1)C(F)(F)c1ccc(-c2ccc(Cl)cc2)cc1)N1CC[C@H]2CNC[C@H]21 [Compound 192-1, N-((R)-1-(4′-chloro-[1,1′-biphenyl]-4-yl)-1,1-difluoro-3-((3aS,6aS)-hexahydropyrrolo[3,4-b]pyrrol-1(2H)-yl)-3-oxopropan-2-yl)-6-(cyclopentyloxy)naphthalene-2-sulfonamide]
10 to 30 | NC1CCN(C(=O)[C@H](NS(=O)(=O)c2ccc3cc(OC4CCCC4)ccc3c2)C(F)(F)c2ccc(Cl)c(OC3CC3)c2)CC1 [Compound 168-2, (S)—N-(3-(4-aminopiperidin-1-yl)-1-(4-chloro-3-cyclopropoxyphenyl)-1,1-difluoro-3-oxopropan-2-yl)-6-(cyclopentyloxy) naphthalene-2-sulfonamide trifluoroacetate]
< 1 | O=C([C@@H](NS(=O)(=O)c1ccc2cc(OC3CCCC3)ccc2c1)C(F)(F)c1ccc(-c2ccc(Cl)cc2)cc1)N1C[C@H]2CNC[C@H]2C1 [Compound 147-1, N—((R)-1-(4′-chloro-[1,1′-biphenyl]-4-yl)-1,1-difluoro-3-((3aR,6aS)-hexahydropyrrolo[3,4-c]pyrrol-2(1H)-yl)-3-oxopropan-2-yl)-6-(cyclopentyloxy) naphthalene-2-sulfonamide trifluoroacetate]
10 to 30 | COc1cc(C(F)(F)[C@@H](NS(=O)(=O)c2ccc3cc(OC4CCCC4)ccc3c2)C(=O)N2C[C@H]3CNC[C@H]3C2)ccc1-c1ccc(Cl)cc1 [Compound 197-2, N-((S)-1-(4′-chloro-2-methoxy-[1,1′-biphenyl]-4-yl)-1,1-difluoro-3-((3aR,6aS)-hexahydropyrrolo[3,4-c]pyrrol-2(1H)-yl)-3-oxopropan-2-yl)-6-(cyclopentyloxy)naphthalene-2-sulfonamide]
1 to 10 | CCCOc1cc(C(F)(F)[C@@H](NS(=O)(=O)c2ccc3cc(OC4CCCC4)ccc3c2)C(=O)N2CCC(N)CC2)ccc1Cl [Compound 169-2, (S)—N-(3-(4-aminopiperidin-1-yl)-1-(4-chloro-3-propoxyphenyl)-1,1-difluoro-3-oxopropan-2-yl)-6-(cyclopentyloxy) naphthalene-2-sulfonamide trifluoroacetate]

SMILES | IC50 [µM]
N[C@H]1CCN(C(=O)[C@H](NS(=O)(=O)c2ccc3cc(OC4CCCC4)ccc3c2)C(F)(F)c2ccc(-c3ccc(Cl)cc3)cc2)CC1(F)F [Compound 161-2, N—((S)-3-((S)-4-amino-3,3-difluoropiperidin-1-yl)-1-(4′-chloro-[1,1′-biphenyl]-4-yl)-1,1-difluoro-3-oxopropan-2-yl)-6-(cyclopentyloxy) naphthalene-2-sulfonamide trifluoroacetate] | 30 to 100
NC1CC2CCC(C1)N2C(=O)[C@H](NS(=O)(=O)c1ccc(OCC2CCCCC2)cc1)C(F)(F)c1ccc(Cl)s1 (stereo partly drawn) [Compound 194-2, N-((2S)-3-(3-amino-8-azabicyclo[3.2.1]octan-8-yl)-1-(5-chlorothiophen-2-yl)-1,1-difluoro-3-oxopropan-2-yl)-4-(cyclohexylmethoxy)benzenesulfonamide] | 30 to 100
NC1CC2CCC(C1)N2C(=O)[C@@H](NS(=O)(=O)c1ccc2cc(OC3CC3)ccc2c1)C(F)(F)c1ccc(Br)cc1 (stereo partly drawn) [Compound 177-1, N-((2R)-3-(3-amino-8-azabicyclo[3.2.1]octan-8-yl)-1-(4-bromophenyl)-1,1-difluoro-3-oxopropan-2-yl)-6-cyclopropoxynaphthalene-2-sulfonamide trifluoroacetate] | 1 to 10
NC1CC2CCC(C1)N2C(=O)[C@@H](NC(=O)[C@H](O)c1ccc2cc(OC3CCCC3)ccc2c1)C(F)(F)c1ccc2cc(Br)ccc2c1 (stereo partly drawn) [Compound 158-1, (2R)—N-((2R)-3-(3-amino-8-azabicyclo[3.2.1]octan-8-yl)-1-(6-bromonaphthalen-2-yl)-1,1-difluoro-3-oxopropan-2-yl)-2-(6-(cyclopentyloxy)naphthalen-2-yl)-2-hydroxyacetamide trifluoroacetate] | 1 to 10
N[C@H]1CCN(C(=O)[C@H](NS(=O)(=O)c2ccc3cc(OC4CCCC4)ccc3c2)C(F)(F)c2ccc(-c3ccc(Cl)cc3)cc2)C[C@@H]1F [Compound 178-2, N—((S)-3-((3 S,4S)-4-amino-3-fluoropiperidin-1-yl)-1-(4′-chloro-[1,1′-biphenyl]-4-yl)-1,1-difluoro-3-oxopropan-2-yl)-6-(cyclopentyloxy) naphthalene-2-sulfonamide] | 1 to 10
N[C@@H]1CC2CCC1N2C(=O)[C@H](NS(=O)(=O)c1ccc2cc(OC3CCCC3)ccc2c1)C(F)(F)c1ccc(-c2ccc(Cl)cc2)cc1 (stereo partly drawn) [Compound 180-3, N-((2S)-3-((2R)-2-amino-7-azabicyclo[2.2.1]heptan-7-yl)-1-(4′-chloro-[1,1′-biphenyl]-4-yl)-1,1-difluoro-3-oxopropan-2-yl)-6-(cyclopentyloxy)naphthalene-2-sulfonamide] | 1 to 10
NC1CC2CCC(C1)N2C(=O)[C@H](NC(=O)[C@@H](O)c1ccc2cc(OC3CCCC3)ccc2c1)C(F)(F)c1ccc2cc(Br)ccc2c1 (stereo partly drawn) [Compound 158-2, (2S)—N-((2 S)-3-(3-amino-8-azabicyclo[3.2.1]octan-8-yl)-1-(6-bromonaphthalen-2-yl)-1,1-difluoro-3-oxopropan-2-yl)-2-(6-(cyclopentyloxy)naphthalen-2-yl)-2-hydroxyacetamide trifluoroacetate] | 30 to 100
